The source made the active and inactive calls. No cut-off for these calls is given here.

In one test the target is Acetolactate synthase (Nicotiana tabacum, UniProt C0L093). The experiment in a line: Inhibition of wild type Nicotiana tabacum (tobacco) S4-Hra GST-tagged acetolactate synthase mutant expressed in Escherichia coli by modified Westerfeld method.
In the case of `Cc1ccn2nc(S(=O)(=O)Nc3c(F)cccc3F)nc2n1` [FLUMETSULAM], inhibition was half-maximal at 0.939 µM (IC50).
Same read-out and setting: as for `Cc1cc(C)n2nc(S(=O)(=O)Nc3c(F)ccc4cccnc34)nc2n1`, the figure is 14.7 µM.
Same read-out and setting: next, `Cc1ccn2nc(S(=O)(=O)Nc3c(F)ccc4cccnc34)nc2n1`: 16.5 µM.

The next test addresses T1, Acetolactate synthase (Nicotiana tabacum, UniProt C0L093).
T1 sequence (C0L093 whole entry): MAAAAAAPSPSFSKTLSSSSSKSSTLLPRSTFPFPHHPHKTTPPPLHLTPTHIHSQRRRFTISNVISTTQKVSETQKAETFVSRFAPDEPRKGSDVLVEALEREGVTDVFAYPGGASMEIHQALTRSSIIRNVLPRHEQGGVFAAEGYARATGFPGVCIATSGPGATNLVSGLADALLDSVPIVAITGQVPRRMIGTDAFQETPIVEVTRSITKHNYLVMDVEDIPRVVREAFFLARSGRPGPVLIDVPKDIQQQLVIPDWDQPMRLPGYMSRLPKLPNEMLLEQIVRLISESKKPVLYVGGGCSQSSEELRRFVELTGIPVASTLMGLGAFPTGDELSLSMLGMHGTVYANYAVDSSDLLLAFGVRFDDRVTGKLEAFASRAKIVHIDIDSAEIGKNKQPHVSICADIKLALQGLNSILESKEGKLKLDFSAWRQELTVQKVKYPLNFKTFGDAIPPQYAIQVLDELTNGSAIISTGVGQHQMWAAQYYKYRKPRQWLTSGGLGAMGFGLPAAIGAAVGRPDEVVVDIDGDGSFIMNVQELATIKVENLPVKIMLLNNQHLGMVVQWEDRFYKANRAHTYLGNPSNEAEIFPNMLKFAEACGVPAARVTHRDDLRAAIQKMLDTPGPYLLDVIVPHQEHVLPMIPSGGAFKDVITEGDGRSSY
The experiment in a line: Inhibition of wild type Nicotiana tabacum (tobacco) GST-tagged acetolactate synthase expressed in Escherichia coli by modified Westerfeld method.
Regarding `Cc1cc(C)n2nc(S(=O)(=O)Nc3cccc4cccnc34)nc2n1`, the IC50 came to 0.0323 µM.
The compound `Cc1ccn2nc(S(=O)(=O)Nc3c(C#N)ccc4cccnc34)nc2n1` registered a concentration for half-maximal inhibition (IC50) of 0.064 µM.
Same read-out and setting: next, `Cc1ccn2nc(S(=O)(=O)Nc3c(Cl)ccc4cccnc34)nc2n1`: 0.0372 µM.
The same measure, in the same setting: next, `Cc1cc(C)n2nc(S(=O)(=O)Nc3c(Cl)ccc4cccnc34)nc2n1`: 0.0094 µM; `Cc1ccn2nc(S(=O)(=O)Nc3c(F)cccc3F)nc2n1` [FLUMETSULAM]: 0.0316 µM; `Cc1cc(C)n2nc(S(=O)(=O)Nc3c(Br)ccc4cccnc34)nc2n1`: 0.0087 µM.
The same measure, in the same setting: as for `Cc1cc(C)n2nc(S(=O)(=O)Nc3c(F)ccc4cccnc34)nc2n1`, the figure is 0.0077 µM.
In turn, `Cc1ccn2nc(S(=O)(=O)Nc3c(F)ccc4cccnc34)nc2n1` gave an IC50 of 0.0171 µM.
On the same count and under the same terms, as for `Cc1ccn2nc(S(=O)(=O)Nc3c(Br)ccc4cccnc34)nc2n1`, the figure is 0.0192 µM.

The target in a further test is T2, Acetolactate synthase (Nicotiana tabacum) (UniProt C0L093).
T2 sequence (whole entry): T1 sequence (C0L093 whole entry)
Put plainly: Inhibition of wild type Nicotiana tabacum (tobacco) GST-tagged acetolactate synthase expressed in Escherichia coli at 1 mM by modified Westerfeld method.
`Cc1ccn2nc(S(=O)(=O)Nc3cccc4ncccc34)nc2n1`: the inhibition entry is “inactive”.
On the same count and under the same terms, as for `Cc1ccn2nc(S(=O)(=O)Nc3cccc4cnccc34)nc2n1`, the entry is “inactive”; as for `Cc1ccn2nc(S(=O)(=O)Nc3nccc4ccccc34)nc2n1`, “inactive”.
For `Cc1cc(C)n2nc(S(=O)(=O)Nc3nccc4ccccc34)nc2n1`, the inhibition result was “inactive”.
On the same count and under the same terms, as for `Cc1cc(C)n2nc(S(=O)(=O)Nc3cccc4cnccc34)nc2n1`, the entry is “inactive”; as for `Cc1cc(C)n2nc(S(=O)(=O)Nc3cccc4ncccc34)nc2n1`, “inactive”.

By IC50 is commonly meant the concentration needed to halve the response being measured. The low end stands for greater potency in that assay, the high end for weaker potency in that assay.

The record behind these values is ChEMBL document CHEMBL3045053, “Synthesis of the quinoline-linked triazolopyrimidine analogues and their interactions with the recombinant tobacco acetolactate synthase” (Biochem Biophys Res Commun, 1999).
